From patent US9556139B2, “6-substituted phenoxychroman carboxylic acid derivatives” (Array BioPharma Inc., priority 2008, dated 2017) come the findings set out here.

A value given as a limit tells only on which side of the number the result lay.

A word on the EC50: it is the concentration needed to bring the measured effect to its halfway point.

For the first experiment, the target named is human DP2 (Homo sapiens (Human), UniProt Q9Y5Y4). Put plainly: DP-2 Binding Inhibition Assay (3H-PGD2 binding to membranes of K562 cells expressing DP2). Particulars: read-out: EC50 (Nm) 1% HSA; inhibition of 3H-PGD2 binding, 1% HSA. In outline: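 Radioligand filtration binding: ³H-PGD2 displacement from DP2-expressing K562 cell membranes, 60 min, room temperature, pH 7.4, under 0.1% BSA, 1% HSA or 4% HSA.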
Chain of human DP2 (Q9Y5Y4 whole entry): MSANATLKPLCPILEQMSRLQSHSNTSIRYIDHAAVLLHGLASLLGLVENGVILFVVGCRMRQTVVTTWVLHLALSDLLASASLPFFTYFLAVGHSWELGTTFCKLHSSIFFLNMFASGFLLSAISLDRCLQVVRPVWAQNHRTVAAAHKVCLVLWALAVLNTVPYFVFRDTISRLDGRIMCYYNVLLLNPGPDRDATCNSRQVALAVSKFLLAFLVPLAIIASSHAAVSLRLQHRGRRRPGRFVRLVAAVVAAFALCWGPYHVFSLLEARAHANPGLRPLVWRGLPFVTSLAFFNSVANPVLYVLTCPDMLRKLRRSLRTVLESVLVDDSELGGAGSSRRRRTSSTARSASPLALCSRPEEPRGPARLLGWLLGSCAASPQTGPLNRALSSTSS
`O=C(NCCc1ccc(Cl)cc1)c1ccc(Oc2cc3c(cc2Cl)C(C(=O)O)CCO3)c([N+](=O)[O-])c1` (stereo not drawn) [Example 9, 6-Chloro-7-(4-(4-chlorophenethylcarbamoyl)-2-nitrophenoxy)chroman-4-carboxylic acid]: the EC50 came out at 203 nM. The same measure, in the same setting: as for `N#Cc1cc2c(cc1Oc1ccc(C(=O)NCCc3ccc(F)cc3)cc1)OCCC2C(=O)O` (stereo not drawn) [Example 49, 7-(4-((4-Fluorophenethyl)carbamoyl)phenoxy)-6-cyano-3,4-dihydro-2H-chromene-4-carboxylic acid], the figure is 22.5 nM; as for `N#Cc1cc2c(cc1Oc1ccc(C(=O)NCCc3ccc4ccccc4c3)cc1)OCCC2C(=O)O` (stereo not drawn) [Example 56, 6-Cyano-7-(4-(2-(naphthalen-2-yl)ethylcarbamoyl)phenoxy)chroman-4-carboxylic acid], 14.2 nM; as for `O=C(NCCc1ccc(Cl)cc1)c1ccc(Oc2c(Cl)cc3c(c2Cl)OCCC3C(=O)O)cc1` (stereo not drawn) [Example 46, Sodium 6,8-dichloro-7-(4-(4-chlorophenethylcarbamoyl)phenoxy)chroman-4-carboxylate], 15.8 nM. `N#Cc1cc2c(cc1Oc1ccc(C(=O)NCCc3cccc4ccccc34)cc1)OCCC2C(=O)O` (stereo not drawn) [Example 55, 6-Cyano-7-(4-(2-(naphthalen-1-yl)ethylcarbamoyl)phenoxy)chroman-4-carboxylic acid]: the EC50 was found to be 12.1 nM.

As to `N#Cc1cc2c(cc1Oc1ccc(C(=O)NCCc3ccccc3)cc1)OCCC2C(=O)O` (stereo not drawn) [Example 5, 6-Cyano-7-(4-(phenethylcarbamoyl)phenoxy)chroman-4-carboxylic acid], the EC50 stood at 37.4 nM.

Turning to `C[C@@H](CNC(=O)c1ccc(Oc2cc3c(cc2C#N)C(C(=O)O)CCO3)cc1)c1ccccc1` (stereo partly drawn) [Example 130, 6-Cyano-7-(4-((R)-2-phenylpropylcarbamoyl)phenoxy)chroman-4-carboxylic acid], the EC50 was determined as 25.7 nM.

Still in this experiment, the particulars now being: read-out: EC50 (nM) 4% HSA; inhibition of 3H-PGD2 binding, 4% HSA.
As for `O=C(NCCc1cccc(F)c1)c1ccc(Oc2cc3c(cc2Cl)C(C(=O)O)CCO3)cc1` (stereo not drawn) [Example 145, Sodium 6-chloro-7-(4-(3-fluorophenethylcarbamoyl)phenoxy)chroman-4-carboxylate], the EC50 is 655 nM.

For `O=C(NCCc1ccc(Cl)cc1)c1ccc(Oc2c(Cl)cc3c(c2Cl)OCCC3C(=O)O)cc1` (stereo not drawn) [Example 46, Sodium 6,8-dichloro-7-(4-(4-chlorophenethylcarbamoyl)phenoxy)chroman-4-carboxylate], the EC50 amounted to 176 nM. On the same count and under the same terms, as for `COc1ccc(CCNC(=O)c2ccc(Oc3cc4c(cc3Cl)C(C(=O)O)CCO4)cc2)c(Cl)c1` (stereo not drawn) [Example 100, Sodium 6-chloro-7-(4-(2-chloro-4-methoxyphenethylcarbamoyl)phenoxy)chroman-4-carboxylate], the figure is 619 nM; as for `CC(C)(C)Oc1ccccc1CCNC(=O)c1ccc(Oc2cc3c(cc2Cl)C(C(=O)O)CCO3)cc1` (stereo not drawn) [Example 116, Sodium 7-(4-(2-tert-butoxyphenethylcarbamoyl)phenoxy)-6-chlorochroman-4-carboxylate], 304 nM. For the compound `O=C(NC1CCN(c2ccc(Cl)cc2Cl)CC1)c1ccc(Oc2cc3c(cc2Cl)C(C(=O)O)CCO3)cc1` (stereo not drawn) [Example 124, Sodium 6-chloro-7-(4-(1-(2,4-dichlorophenyl)piperidin-4-ylcarbamoyl)phenoxy)chroman-4-carboxylate], the EC50 was 841 nM. In the case of `O=C(NCCOc1ccccc1)c1ccc(Oc2cc3c(cc2Cl)C(C(=O)O)CCO3)cc1` (stereo not drawn) [Example 220, 6-chloro-7-(4-(2-phenoxyethylcarbamoyl)phenoxy)chroman-4-carboxylic acid], the EC50 was over 2000 nM. On the same count and under the same terms, the same measure for `O=C(NCC1CCc2cc(Cl)ccc21)c1ccc(Oc2cc3c(cc2Cl)C(C(=O)O)CCO3)cc1` (stereo not drawn) [Example 231, 6-chloro-7-(4-((5-chloro-2,3-dihydro-1H-inden-1-yl)methylcarbamoyl)phenoxy) chroman-4-carboxylic acid]: 225 nM; for `O=C(NCC(F)(F)c1ccc(Cl)cc1)c1ccc(Oc2cc3c(cc2Cl)C(C(=O)O)CCO3)cc1` (stereo not drawn) [Example 195, sodium 6-chloro-7-(4-(2-(4-chlorophenyl)-2,2-difluoroethylcarbamoyl)phenoxy)chroman-4-carboxylate]: 1150 nM. Same read-out and setting: the same measure for `COc1ccc(CCNC(=O)c2ccc(Oc3cc4c(cc3Cl)C(C(=O)O)CCO4)cc2)cc1` (stereo not drawn) [Example 140, Sodium 6-chloro-7-(4-(4-methoxyphenethylcarbamoyl)phenoxy)chroman-4-carboxylate]: 498 nM; for `O=C(NC1CCC(c2cccc(F)c2)C1)c1ccc(Oc2cc3c(cc2Cl)C(C(=O)O)CCO3)cc1` (stereo not drawn) [Example 171, Sodium 6-chloro-7-(4-(3-(3-fluorophenyl)cyclopentylcarbamoyl)phenoxy)chroman-4-carboxylate]: 333 nM.

`O=C(NCCCCc1ccc(Cl)cc1)c1ccc(Oc2cc3c(cc2Cl)C(C(=O)O)CCO3)cc1` (stereo not drawn) [Example 15, Sodium 6-chloro-7-(4-(4-(4-chlorophenyl)butylcarbamoyl)phenoxy)chroman-4-carboxylate]: the EC50 amounted to 746 nM. The same measure, in the same setting: as for `O=C(NC1CCC(c2ccc(Cl)cc2)C1)c1ccc(Oc2cc3c(cc2Cl)C(C(=O)O)CCO3)cc1` (stereo not drawn) [Example 168, Sodium 6-chloro-7-(4-(3-(4-chlorophenyl)cyclopentylcarbamoyl)phenoxy)chroman-4-carboxylate], the figure is 302 nM; as for `COC(CNC(=O)c1ccc(Oc2cc3c(cc2Cl)C(C(=O)O)CCO3)cc1)c1ccc(Cl)cc1` (stereo not drawn) [Example 188, Sodium 6-chloro-7-(4-(2-(4-chlorophenyl)-2-methoxyethylcarbamoyl)phenoxy)chroman-4-carboxylate], 759 nM. As to `COc1ccccc1CCNC(=O)c1ccc(Oc2cc3c(cc2Cl)C(C(=O)O)CCO3)cc1` (stereo not drawn) [Example 63, Sodium 6-chloro-7-(4-(2-methoxyphenethylcarbamoyl)phenoxy)chroman-4-carboxylate], the EC50 was determined as 305 nM. Still for that read-out and setting: as for `O=C(NCCc1c(Cl)cccc1Cl)c1ccc(Oc2cc3c(cc2Cl)C(C(=O)O)CCO3)cc1` (stereo not drawn) [Example 80, Sodium 6-chloro-7-(4-(2,6-dichlorophenethylcarbamoyl)phenoxy)chroman-4-carboxylate], the figure is 165 nM. As for `COc1cc(CCNC(=O)c2ccc(Oc3cc4c(cc3C#N)C(C(=O)O)CCO4)cc2)ccc1Cl` (stereo not drawn) [Example 133, 7-(4-(4-Chloro-3-methoxyphenethylcarbamoyl)phenoxy)-6-cyanochroman-4-carboxylic acid], the EC50 came to 625 nM. Turning to `CCOc1ccccc1CCNC(=O)c1ccc(Oc2cc3c(cc2Cl)C(C(=O)O)CCO3)cc1` (stereo not drawn) [Example 114, Sodium 6-chloro-7-(4-(2-ethoxyphenethylcarbamoyl)phenoxy)chroman-4-carboxylate], the EC50 was 91 nM. As to `COc1cc(F)ccc1CCNC(=O)c1ccc(Oc2cc3c(cc2Cl)C(C(=O)O)CCO3)cc1` (stereo not drawn) [Example 101, Sodium 6-chloro-7-(4-(4-fluoro-2-methoxyphenethylcarbamoyl)phenoxy)chroman-4-carboxylate], the EC50 was found to be 292 nM. The same measure, in the same setting: the same measure for `O=C(NCC(O)c1ccc(Cl)cc1)c1ccc(Oc2cc3c(cc2Cl)C(C(=O)O)CCO3)cc1` (stereo not drawn) [Example 184, Sodium 6-chloro-7-(4-(2-(4-chlorophenyl)-2-hydroxyethylcarbamoyl)phenoxy)chroman-4-carboxylate]: 824 nM.

For `COc1cc(OC)c(CCNC(=O)c2ccc(Oc3cc4c(cc3Cl)C(C(=O)O)CCO4)cc2)c(OC)c1` (stereo not drawn) [Example 222, 6-chloro-7-(4-(2,4,6-trimethoxyphenethylcarbamoyl)phenoxy)chroman-4-carboxylic acid], the EC50 turned out to be 118 nM. Consider `O=C(NCCc1ccccc1-c1ccccc1)c1ccc(Oc2cc3c(cc2Cl)C(C(=O)O)CCO3)cc1` (stereo not drawn) [Example 92, Sodium 7-(4-(2-(biphenyl-2-yl)ethylcarbamoyl)phenoxy)-6-chlorochroman-4-carboxylate], for which the EC50 was determined as 111 nM. `O=C(NCCc1ccc2c(c1)OCO2)c1ccc(Oc2cc3c(cc2Cl)C(C(=O)O)CCO3)cc1` (stereo not drawn) [Example 110, Sodium 7-(4-(2-(benzo[d][1,3]dioxol-5-yl)ethylcarbamoyl)phenoxy)-6-chlorochroman-4-carboxylate]: the half-maximal effective concentration (EC50) turned out to be 607 nM. Same read-out and setting: the same measure for `O=C(NCCc1ccccc1-c1ccccc1Cl)c1ccc(Oc2cc3c(cc2Cl)C(C(=O)O)CCO3)cc1` (stereo not drawn) [Example 96, Sodium 6-chloro-7-(4-(2-(2′-chlorobiphenyl-2-yl)ethylcarbamoyl)phenoxy)chroman-4-carboxylate]: 40.2 nM; for `CC(C)(C)c1cccc(NC(=O)c2ccc(Oc3cc4c(cc3C#N)C(C(=O)O)CCO4)cc2)c1` (stereo not drawn) [Example 134, 7-(4-(3-tert-Butylphenylcarbamoyl)phenoxy)-6-cyanochroman-4-carboxylic acid]: 112 nM. For the compound `O=C(NCCc1ccc(Cl)cc1)c1ccc(Oc2c(Cl)cc3c(c2Br)OCCC3C(=O)O)cc1` (stereo not drawn) [Example 38, Sodium 8-bromo-6-chloro-7-(4-(4-chlorophenethylcarbamoyl)phenoxy)chroman-4-carboxylate], the EC50 turned out to be 366 nM. Still for that read-out and setting: as for `O=C(NCCc1ccc(Cl)cc1Cl)c1ccc(Oc2c(C3CC3)cc3c(c2C2CC2)OCCC3C(=O)O)cc1` (stereo not drawn) [Example 40, Sodium 6,8-dicyclopropyl-7-(4-(2,4-dichlorophenethylcarbamoyl)phenoxy)chroman-4-carboxylate], the figure is 42.2 nM; as for `O=C(NCCc1ccccc1C1CC1)c1ccc(Oc2cc3c(cc2Cl)C(C(=O)O)CCO3)cc1` (stereo not drawn) [Example 93, Sodium 6-chloro-7-(4-(2-cyclopropylphenethylcarbamoyl)phenoxy)chroman-4-carboxylate], 107 nM. Same read-out and setting: the same measure for `CC(C)Oc1cccc(NC(=O)c2ccc(Oc3cc4c(cc3C#N)C(C(=O)O)CCO4)cc2)c1` (stereo not drawn) [Example 135, 6-Cyano-7-(4-(3-isopropoxyphenylcarbamoyl)phenoxy)chroman-4-carboxylic acid]: 205 nM. As for `Cc1ccc(CCNC(=O)c2ccc(Oc3cc4c(cc3Cl)C(C(=O)O)CCO4)cc2)c(C)c1` (stereo not drawn) [Example 21, Sodium 6-chloro-7-(4-(2,4-dimethylphenethylcarbamoyl)phenoxy)chroman-4-carboxylate], the EC50 amounted to 169 nM.
